81 compounds from PubChem BioAssay AID602210 (Sanford-Burnham Center for Chemical Genomics, 2012) can be followed below.

The source made the active and inactive calls. How the calls were made is not given here.

The experiment can be described thus: modulators of 2-deoxyglucose-induced H9c2 death, dose response, myocardial damage modulator project, cell-based, ATPlite luminescence, rat, set 2 (AID 602210). The conditions noted are these: H9c2 rat cardiomyoblasts, 2-deoxyglucose-induced death, 2 h. (In general: In ATP-based viability assays light output follows the ATP content of the culture.)
For the compound `CC(C(=O)NC1CCCC1)N(C(=O)Cn1nnc(-c2ccc(F)cc2)n1)c1ccccc1F` (stereo unspecified), the IC50 (commonly the concentration at which inhibition is half-maximal) is 11.3 µM (inactive).
As to `COc1cc(-c2cc(NC(C)=O)c3ncc(-c4ccccc4)n3c2)cc(OC)c1OC`, the IC50 is > 79 µM (inactive).
The same measure for `COC(=O)c1ccc(C(=O)OC)c(NC(=O)COC(=O)C23CC4CC(CC(O)(C4)C2)C3)c1`: 10.5 µM (inactive); for `Cc1nc2ccccc2c2c(N)c3ccccc3n12`: 32.1 µM (inactive).
Regarding `CCOC(=O)N1CCN(C(=O)CSc2nc3ccccc3c(=O)n2-c2ccccc2)CC1`, the IC50 is 34.5 µM (inactive).
For `CCc1nc2ccc(C(=O)Nc3cc(-c4ccccc4)ccc3OC)cn2c1N(C)Cc1nccs1` the value was 14.1 µM (inactive); for `COc1ccc(-c2cc3nc(C)cc(N4CCN(C(=O)c5ccoc5)CC4)n3n2)cc1`, > 79 µM (inactive); for `C[C@@H]1CN([C@H](C)CO)S(=O)(=O)c2ccc(C#Cc3ccccc3F)cc2O[C@H]1CN(C)C(=O)c1ccc2c(c1)OCO2`, 8.38 µM.
The same measure for `CC(C)c1ccccc1NC(=O)COC(=O)c1c2c(nc3ccccc13)CCN(Cc1ccccc1)C2`: 7.98 µM.
In the case of `COc1cc(-c2cc3nc(NCCc4ccc(S(N)(=O)=O)cc4)ccn3n2)cc(OC)c1OC`, the IC50 is 15.6 µM (inactive).
The same measure for `CCOC(=O)N1CCN(C(=O)CSc2nc3c(cnn3-c3ccc(C)cc3)c(=O)[nH]2)CC1`: > 79 µM (inactive); for `CCOC(=O)C1=C(C)NC(C)=C(C(=O)OCC)C1C(=O)OCC(=O)NC1CCCCC1`: 7.05 µM; for `CC(=O)c1ccc(-c2cnc3c(NC=O)cc(-c4ccc(C(=O)NC5CC5)cc4)cn23)cc1`: 6.57 µM.
As for `Nc1c(C(=O)NC2CC2)c2nc3ccccc3nc2n1-c1ccc2c(c1)OCO2`, the IC50 is > 79 µM (inactive).
As to `CCCNC(=O)c1ccc(N2CCC3(CC2)CC(c2ccccc2)=NO3)c(NC(=O)c2ccco2)c1`, the IC50 was 8.75 µM.
`Cc1ccc(C)c(C(=O)Nc2cc(C)nn2-c2nc(C)cc(C)n2)c1`: the IC50 was 30.1 µM (inactive).
Consider `CC1(c2ccccc2)NC(=O)N(CC(=O)Nc2cccc(/C=C/c3ccccn3)c2)C1=O` (stereo unspecified), for which the IC50 was 21.8 µM (inactive).
In the case of `O=c1oc2ccc3ccccc3c2cc1-c1nnc(-c2ccccc2)o1`, the IC50 was > 79 µM (inactive).
The same measure for `COc1ccc(CCNc2nc(-c3cccnc3)nc3ccccc23)cc1OC`: 8.24 µM.
`CCC(Oc1ccccc1)C(=O)Nc1ccccc1C(=O)N1CCCCC1` (stereo unspecified): the IC50 was 36.4 µM (inactive).
As to `COCCn1c(=NC(=O)c2nc3ccccc3s2)sc2cc(S(C)(=O)=O)ccc21`, the IC50 is > 79 µM (inactive).
For `CC(=O)Nc1ccc(S(=O)(=O)N(Cc2ccco2)Cc2cc3ccccc3[nH]c2=O)cc1` the value was 8.86 µM; for `CCC1(CC)NC(=O)N(CC(=O)OCC(=O)Nc2ccccc2[N+](=O)[O-])C1=O`, 21.4 µM (inactive).
Regarding `COc1cc2nc(Nc3ccc(F)cc3)nc(N)c2cc1OC`, the IC50 is > 79 µM (inactive).
For `COc1cc(/C=N/NC(=O)c2ccccc2)ccc1OS(=O)(=O)c1ccccc1`, the IC50 is 13.5 µM (inactive).
Regarding `O=C(CCCn1c(SCC(=O)c2ccc(O)c(O)c2)nc2ccccc2c1=O)NCC1CCCO1` (stereo unspecified), the IC50 was 36.8 µM (inactive).
The same measure for `Cc1cccc(NC(=O)c2nc[nH]c2C(=O)NCCCCNC(=O)c2[nH]cnc2C(=O)Nc2cccc(C)c2)c1`: 3.32 µM; for `COC(=O)c1ccc(C(C(=O)NCc2ccccc2)N(Cc2cccs2)C(=O)c2cnccn2)cc1` (stereo unspecified): 13.4 µM (inactive); for `COc1cc(/C=N/NC(=O)c2cccnc2)ccc1OS(=O)(=O)c1ccc(F)cc1`: 21.2 µM (inactive).
Take `COc1cc2c(C#CCCCO)c(-c3ccsc3)oc(=O)c2cc1OC`: the half-maximal inhibitory concentration (IC50) was 5.66 µM.
As for `CS(=O)(=O)Nc1cccc(NC(=O)c2cccc3c(-c4cccc(C(N)=O)c4)coc23)c1`, the IC50 is 5.97 µM.
Consider `CC(=O)c1cccc(-c2cnc3c(NC=O)cc(-c4ccc(F)cc4)cn23)c1`, for which the IC50 is > 79 µM (inactive).
As to `C#CCOc1nc(Nc2cccc([N+](=O)[O-])c2)nc(OCC#C)n1`, the IC50 is 24.9 µM (inactive).
On to `CCC(=O)N1CCN(c2ccccc2NC(=O)c2ccc(-c3cccc([N+](=O)[O-])c3)o2)CC1`, for which the IC50 is > 79 µM (inactive).
For the compound `COC(=O)c1cccc(S(=O)(=O)N(Cc2ccco2)Cc2cc3cc(OC)ccc3[nH]c2=O)c1`, the IC50 is 11.6 µM (inactive).
For `CC(=O)Nc1cc(-c2ccccc2)cn2c(-c3cccc(C(C)=O)c3)cnc12` the value was 16 µM (inactive); for `COc1ccc(CNn2c(-c3cccs3)nc3ccccc3c2=O)cc1OC`, 12.9 µM (inactive); for `CC(=O)c1ccc(-c2[nH]c3ccccc3c2CCN2C(=O)c3ccccc3C2=O)cc1`, > 79 µM (inactive).
In the case of `CCOC(=O)c1c(C)[nH]c(O)c1C=Nc1ccc(Cl)cc1`, the IC50 is 46.7 µM (inactive).
As to `O=C(Nc1ccc(C(=O)N2CCOCC2)cc1)c1cnn2c(C(F)F)cc(-c3ccccc3)nc12`, the IC50 was > 79 µM (inactive).
For the compound `CCOc1ccc(C(C(=O)NCC2CCCO2)N(C(=O)c2snc(C(N)=O)c2N)c2ccccc2F)cc1` (stereo unspecified), the IC50 is 24 µM (inactive).
On to `NC(=O)c1nsc(C(=O)N(c2ccccc2F)C(C(=O)NCc2ccc(F)cc2)c2ccc(O)cc2)c1N` (stereo unspecified), for which the IC50 is 3.13 µM.
The same measure for `Cc1ccccc1NP(=O)(Oc1ccccc1F)Oc1ccccc1F`: > 79 µM (inactive); for `Cc1c(O)ccc2c(-c3ccccc3)cc(=O)oc12`: 31.7 µM (inactive); for `CC12CCC3C(CCC4CC(O)CCC43C)C1CC(O)C2` (stereo unspecified): 10.4 µM (inactive).
In the case of `O=C(Nc1cccc(NC(=O)c2ccc([N+](=O)[O-])o2)c1)c1ccco1`, the 50% inhibitory concentration (IC50) is 3.85 µM.
For `O=C(Nc1ccccc1)c1nc[nH]c1C(=O)NCCCCNC(=O)c1[nH]cnc1C(=O)Nc1ccccc1` the value was 4.11 µM.
For `CCN(CC)c1ccc(C2C(C(=O)OC(C)C)C(=O)CC(C)(O)C2C(=O)OC(C)C)cc1` (stereo unspecified) the value was 20.5 µM (inactive); for `C/C(=N\Nc1nnc2c3ccccc3n(C)c2n1)c1ccc(C)o1`, 12.3 µM (inactive); for `O=C(NCC(=O)N(Cc1ccccc1)C(C(=O)NC1CCCCC1)c1ccco1)c1ccco1` (stereo unspecified), 24 µM (inactive).
Turning to `Cc1nn2c(-c3cccc(NC(=O)c4ccco4)c3)nnc2c2ccccc12`, the IC50 was 7.77 µM.
The same measure for `COc1ccc(-c2cc(-c3nnc(COC(=O)C4CC4)o3)c3ccccc3n2)cc1OC`: 8.35 µM; for `N#Cc1cnn2cc(-c3ncc(C(F)(F)F)cc3Cl)cnc12`: 47.7 µM (inactive); for `COc1cc(C(=O)N/N=C/c2ccc(OC(=O)c3ccccc3Cl)cc2)ccc1O`: > 79 µM (inactive).
Take `CCOc1cc(-c2cc(-c3ccc(N)cc3)nc(N)c2C#N)ccc1O`: the IC50 is 11.8 µM (inactive).
The same measure for `Cc1c(C(=O)NCC2COc3ccccc3O2)oc2ccc(S(=O)(=O)N3CCOCC3)cc12` (stereo unspecified): 5.65 µM; for `O=CNc1cc(-c2ccc(C(=O)NC3CC3)cc2)cn2c(-c3ccccc3)cnc12`: 16.1 µM (inactive).
Consider `COc1ccc(Nc2nnc(SCc3cc(=O)n4ccsc4n3)s2)cc1`, for which the IC50 was 21.7 µM (inactive).
Regarding `C[C@H](NC(=O)c1nc[nH]c1C(=O)NCC(=O)OCc1ccccc1)c1ccccc1`, the IC50 is 14.3 µM (inactive).
With `COc1ccc(-c2cc(NC=O)c3ncc(-c4cccc(C(C)=O)c4)n3c2)cc1`, the IC50 was > 79 µM (inactive).
As for `COc1ccc(N(CC(=O)N/N=C/c2cccs2)S(=O)(=O)c2ccc(OC)c(OC)c2)cc1`, the IC50 is 28 µM (inactive).
For `O=C(CNC(=O)c1[nH]cnc1C(=O)NC(c1ccccc1)c1ccccc1)OCc1ccccc1` the value was 22.3 µM (inactive); for `COc1ccc(C(=O)O/N=C(/c2ccccc2)c2ccncc2)cc1OC`, 15.9 µM (inactive).
The same measure for `COc1ccc(-c2cnc3c(NC=O)cc(-c4cccc(NS(C)(=O)=O)c4)cn23)cc1OC`: 13.4 µM (inactive); for `COc1ccc(C(=O)COC(=O)Cn2[nH]c(=O)c3ccccc3c2=O)c(OC)c1`: 52.7 µM (inactive); for `COc1cccc(/C=N/NC(=O)c2nc(-c3ccccc3)cc(-c3ccccc3)n2)c1`: > 79 µM (inactive).
For `CC(=O)Nc1cc(C)nn1-c1nc2ccccc2s1` the value was > 79 µM (inactive); for `COc1cc(/C=C(\C#N)c2nc3ccc(C)cc3[nH]2)c([N+](=O)[O-])cc1OC`, 26.4 µM (inactive).
Turning to `CCOc1cccc(Nc2cc3n(c(=O)n2)CCc2cc(OC)c(OC)cc2-3)c1`, the IC50 was 28 µM (inactive).
Regarding `Cc1nn(C)cc1C(C(=O)NC1CCCCC1)N(C(=O)Cc1cccs1)c1ccc(Cl)cc1` (stereo unspecified), the IC50 is 29.8 µM (inactive).
With `Cc1ccc2cc3c(NC(=O)c4cccnc4)nn(C)c3nc2c1`, the IC50 is 18.5 µM (inactive).
Take `COc1ccccc1N1CCN(C(=O)c2ccc3nc(-c4ccco4)c(-c4ccco4)nc3c2)CC1`: the IC50 was 14 µM (inactive).
With `COc1cc(OC)c(-c2nn3c(-c4ccco4)nnc3s2)cc1OC`, the IC50 was 9.15 µM.
For `CCOC(=O)c1ccc(NC(=O)c2nc[nH]c2C(=O)NCCCCCNC(=O)OC(C)(C)C)cc1` the value was 6.6 µM; for `CC1(C)CC(=O)C2=C(C1)N(CCN1CCOCC1)C1=C(C(=O)CC(C)(C)C1)C2c1ccc(Cl)cc1`, 39.1 µM (inactive).
For `Cc1cc(C)c(C)c(S(=O)(=O)N2CCN(C(=O)c3cc(=O)[nH]c4ccccc34)CC2)c1C` the value was 5.01 µM; for `CC(=O)Nc1cccc(-c2cc(NC=O)c3ncc(-c4cccc(C(C)=O)c4)n3c2)c1`, 11 µM (inactive).
The same measure for `COc1cc2nc(C3CCC3)nc(N3CCN(c4ccccn4)CC3)c2cc1OC`: > 79 µM (inactive); for `COc1cc(-c2cc(NC(C)=O)c3ncc(-c4ccc(F)cc4)n3c2)cc(OC)c1OC`: 8.78 µM.
As to `COc1cc(-c2cc(C(=O)OCC(=O)NC3CC3)c3ccccc3n2)cc(OC)c1OC`, the IC50 is 13.2 µM (inactive).
For `CC(C)C1Nc2ccc(C(=O)N3CCN(c4ccccn4)CC3)cc2NC1=O` (stereo unspecified) the value was > 79 µM (inactive).
